Laboratory results as given in US11976061B2, “Preparation of benzimidazolone derivatives as novel diacylglyceride O-acyltransferase 2 inhibitors” (Merck Sharp & Dohme LLC, priority 2020, dated 2024).

Target: T1, human DGAT2 (hDGAT2) (Homo sapiens, UniProt Q96PD7)
T1 construct: made in house; host or cells: Sf-9 insect cells (baculovirus), membrane fraction
T1 sequence (Q96PD7 1-388): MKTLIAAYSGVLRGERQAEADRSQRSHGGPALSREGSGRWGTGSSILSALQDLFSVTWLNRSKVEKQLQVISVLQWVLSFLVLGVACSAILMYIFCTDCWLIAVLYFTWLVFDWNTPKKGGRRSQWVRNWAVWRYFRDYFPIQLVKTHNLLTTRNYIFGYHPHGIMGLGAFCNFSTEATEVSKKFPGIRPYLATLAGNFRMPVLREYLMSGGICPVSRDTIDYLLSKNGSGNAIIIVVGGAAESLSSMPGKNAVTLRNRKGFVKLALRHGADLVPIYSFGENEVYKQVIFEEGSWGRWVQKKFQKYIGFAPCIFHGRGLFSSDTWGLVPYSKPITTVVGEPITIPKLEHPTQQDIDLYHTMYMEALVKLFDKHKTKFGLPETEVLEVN
Test: DGAT2 Enzymatic Activity Assay
Assay type: biochemical
Conditions: membrane prep of Sf-9 cells expressing hDGAT2; 25 μM diolein, 5 μM 13C oleoyl-CoA; 13C18-triolein by LC/MS/MS; read-out: DGAT2 IC50
Procedure: Insect Cell Expression and Membrane Preparation
Sf-9 insect cells were maintained in Grace's insect cell culture medium with 10% heated-inactivated fetal bovine serum, 1% Pluronic F-68 and 0.14 μg/ml Kanamycine sulfate at 27° C. in a shaker incubator. After infection with untagged baculovirus expressing human DGAT2 (hDGAT2) at multiplicity of infection (MOI) 3 for 48 hours, cells were harvested. Cell pellets were suspended in buffer containing 10 mM Tris-HCl pH 7.5, 1 mM EDTA, 250 mM sucrose and Complete Protease Inhibitor Cocktail (Sigma Aldrich), and sonicated on ice. Cell debris were removed by centrifugation at 2000×g for 15 minutes. Membrane fractions were isolated by ultracentrifugation (100,000×g), resuspended in the same buffer, and frozen (−80° C.) for later use. The protein concentration was determined with the Pierce™ BCA Protein Assay Kit (Thermo Fisher Scientific). Expression of protein levels was analyzed by immunoblotting with rabbit anti-DGAT2 antibody (Abcam, ab102831) and donkey anti-rabbit IgG H&L Alexa Fluor® 647 (Abcam, ab150075) followed by detection using Typhoon FLA9000 (GE Healthcare).
LC/MS/MS analyses were performed using Thermal Fisher's LX4-TSQ Vantage system. This system consists of an Agilent binary high-performance liquid chromatography (HPLC) pump and a TSQ Vantage triple quadrupole MS/MS instrument. For each sample, 2 μL samples from the top organic layer of in-plate liquid-liquid extraction were injected onto a Thermo Betabasic C4 column (2.1 mm×20 mm, 5 μm particle size). The samples were then eluted using the following conditions; mobile phase: Isopropanol:acetonitrile/10 mM ammonium formate=50/35/15 (v/v/v), flow rate: 0.8 mL/min, temperature: 25° C. Data was acquired in positive mode using a heated electrospray ionization (HESI) interface. The operational parameters for the TSQ Vantage MS/MS instrument were a spray voltage of 3000 V, capillary temperature of 280° C., vaporizer temperature 400° C., sheath gas 45 arbitrary unit, Aux gas 10 arbitrary units, S-lens 165 and collision gas 1.0 mTorr. […] (SRM) chromatograms of ^13C18-triolein (Q1: 920.8>Q3: 621.3) and internal standard ^13C21-triolein (Q1: 923.8>Q3: 617.3) were collected for 33 sec. The peak area was integrated by Xcalibur Quan software. The ratio between the ^13C18triolein generated in the reaction and spiked in internal standard ^13C21-triolein was used to generate percentage inhibition and IC50 values. Compound percentage inhibition was calculated by the following formula: Inhibition %=1−[(compound response−low control)/(high control−low control)]×100%. Potent compounds were titrated and IC50 were calculated by 4 parameter sigmoidal curve fitting formula.
DGAT2 Enzymatic Activity Assay
DGAT2 activity was determined by measuring the amount of enzymatic product ^13C18-triolein (^13C-1,2,3-Tri(cis-9-octadecenoyl)glycerol) using the membrane prep mentioned above. The assay was carried out in ABgene 384-well assay plates in a final volume of 25 μL at rt. The assay mixture contained the following: assay buffer (100 mM Tris·Cl, pH 7.0, 20 mM MgCl2, 5% ethanol), 25 μM of diolein, 5 μM of ^13C oleoyl-CoA and 8 ng/μL of DGAT2 membrane.

Structure (SMILES) | IC50
CC(n1c(=O)n(-c2cc(OC(F)(F)F)ccc2F)c2cc(F)c(C(=O)NC3(C)CCS(=O)(=O)CC3)cc21)C(C)(C)O (single isomer, unassigned) [Example 70a, 6-fluoro-1-(2-fluoro-5-(trifluoromethoxy)phenyl)-3-(3-hydroxy-3-methylbutan-2-yl)-N-(4-methyl-1,1-dioxidotetrahydro-2H-thiopyran-4-yl)-2-oxo-2,3-dihydro-1H-benzo[d]imidazole-5-carboxamide] | 1 nM
CC(n1c(=O)n(-c2cc(OC(F)(F)F)ccc2F)c2cc(F)c(C(=O)NC3(C)CCS(=O)(=O)CC3)cc21)C(C)(C)O (single isomer, unassigned) [Example 70b, 6-fluoro-1-(2-fluoro-5-(trifluoromethoxy)phenyl)-3-(3-hydroxy-3-methylbutan-2-yl)-N-(4-methyl-1,1-dioxidotetrahydro-2H-thiopyran-4-yl)-2-oxo-2,3-dihydro-1H-benzo[d]imidazole-5-carboxamide] | 30.4 nM
CC(n1c(=O)n(-c2cc(OC(F)(F)F)ccc2F)c2ccc(C(=O)NC3(C)CCS(=O)(=O)CC3)cc21)C(C)(C)O (single isomer, unassigned) [Example 71a, 1-(2-fluoro-5-(trifluoromethoxy)phenyl)-3-(3-hydroxy-3-methylbutan-2-yl)-N-(4-methyl-1,1-dioxidotetrahydro-2H-thiopyran-4-yl)-2-oxo-2,3-dihydro-1H-benzo[d]imidazole-5-carboxamide] | 71 nM
CC(n1c(=O)n(-c2cc(OC(F)(F)F)ccc2F)c2ccc(C(=O)NC3(C)CCS(=O)(=O)CC3)cc21)C(C)(C)O (single isomer, unassigned) [Example 71b, 1-(2-fluoro-5-(trifluoromethoxy)phenyl)-3-(3-hydroxy-3-methylbutan-2-yl)-N-(4-methyl-1,1-dioxidotetrahydro-2H-thiopyran-4-yl)-2-oxo-2,3-dihydro-1H-benzo[d]imidazole-5-carboxamide] | 5.4 nM
CC(n1c(=O)n(-c2cc(OCC(F)F)ncc2F)c2ccc(C(=O)NC3(C)CCS(=O)(=O)CC3)cc21)C(C)(C)O (single isomer, unassigned) [Example 72a, 1-(2-(2,2-difluoroethoxy)-5-fluoropyridin-4-yl)-3-(3-hydroxy-3-methylbutan-2-yl)-N-(4-methyl-1,1-dioxidotetrahydro-2H-thiopyran-4-yl)-2-oxo-2,3-dihydro-1H-benzo[d]imidazole-5-carboxamide] | 6.4 nM
CC(n1c(=O)n(-c2cc(OCC(F)F)ncc2F)c2ccc(C(=O)NC3(C)CCS(=O)(=O)CC3)cc21)C(C)(C)O (single isomer, unassigned) [Example 72b, 1-(2-(2,2-difluoroethoxy)-5-fluoropyridin-4-yl)-3-(3-hydroxy-3-methylbutan-2-yl)-N-(4-methyl-1,1-dioxidotetrahydro-2H-thiopyran-4-yl)-2-oxo-2,3-dihydro-1H-benzo[a]imidazole-5-carboxamide] | 6.6 nM
CC(n1c(=O)n(-c2cc(OCC(F)F)ccc2F)c2ccc(C(=O)NC3(C)CCS(=O)(=O)CC3)cc21)C(C)(C)O (single isomer, unassigned) [Example 73a, 1-(5-(2,2-difluoroethoxy)-2-fluorophenyl)-3-(3-hydroxy-3-methylbutan-2-yl)-N-(4-methyl-1,1-dioxidotetrahydro-2H-thiopyran-4-yl)-2-oxo-2,3-dihydro-1H-benzo[a]imidazole-5-carboxamide] | 2.6 nM
CC(n1c(=O)n(-c2cc(OCC(F)F)ncc2F)c2cc(F)c(C(=O)NC3(C)CCS(=O)(=O)CC3)cc21)C(C)(C)O (single isomer, unassigned) [Example 74a, 1-(2-(2,2-difluoroethoxy)-5-fluoropyridin-4-yl)-6-fluoro-3-(3-hydroxy-3-methylbutan-2-yl)-N-(4-methyl-1,1-dioxidotetrahydro-2H-thiopyran-4-yl)-2-oxo-2,3-dihydro-1H-benzo[d]imidazole-5-carboxamide] | 6.1 nM
CC(n1c(=O)n(-c2cc(OCC(F)F)ncc2F)c2cc(F)c(C(=O)NC3(C)CCS(=O)(=O)CC3)cc21)C(C)(C)O (single isomer, unassigned) [Example 74b, 1-(2-(2,2-difluoroethoxy)-5-fluoropyridin-4-yl)-6-fluoro-3-(3-hydroxy-3-methylbutan-2-yl)-N-(4-methyl-1,1-dioxidotetrahydro-2H-thiopyran-4-yl)-2-oxo-2,3-dihydro-1H-benzo[d]imidazole-5-carboxamide] | 6.5 nM
CC(n1c(=O)n(-c2cc(OCC(F)F)ccc2F)c2cc(F)c(C(=O)NC3(C)CCS(=O)(=O)CC3)cc21)C(C)(C)O (single isomer, unassigned) [Example 75a, 1-(5-(2,2-difluoroethoxy)-2-fluorophenyl)-6-fluoro-3-(3-hydroxy-3-methylbutan-2-yl)-N-(4-methyl-1,1-dioxidotetrahydro-2H-thiopyran-4-yl)-2-oxo-2,3-dihydro-1H-benzo[d]imidazole-5-carboxamide] | 1.5 nM
CC(n1c(=O)n(-c2cc(OCC(F)F)ccc2F)c2cc(F)c(C(=O)NC3(C)CCS(=O)(=O)CC3)cc21)C(C)(C)O (single isomer, unassigned) [Example 75b, 1-(5-(2,2-difluoroethoxy)-2-fluorophenyl)-6-fluoro-3-(3-hydroxy-3-methylbutan-2-yl)-N-(4-methyl-1,1-dioxidotetrahydro-2H-thiopyran-4-yl)-2-oxo-2,3-dihydro-1H-benzo[d]imidazole-5-carboxamide] | 2.4 nM
CC(n1c(=O)n(-c2cccc(OC(F)(F)C(F)F)c2)c2ccc(C(=O)NC3(C)CS(=O)(=O)C3)cc21)C(C)(C)O (single isomer, unassigned) [Example 76a, 3-(3-hydroxy-3-methylbutan-2-yl)-N-(3-methyl-1,1-dioxidothietan-3-yl)-2-oxo-1-(3-(1,1,2,2-tetrafluoroethoxy)phenyl)-2,3-dihydro-1H-benzo[d]imidazole-5-carboxamide] | 80 nM
CC(n1c(=O)n(-c2cccc(OC(F)(F)C(F)F)c2)c2ccc(C(=O)NC3(C)CS(=O)(=O)C3)cc21)C(C)(C)O (single isomer, unassigned) [Example 76b, 3-(3-hydroxy-3-methylbutan-2-yl)-N-(3-methyl-1,1-dioxidothietan-3-yl)-2-oxo-1-(3-(1,1,2,2-tetrafluoroethoxy)phenyl)-2,3-dihydro-1H-benzo[d]imidazole-5-carboxamide] | 7.9 nM
CC(n1c(=O)n(-c2cccc(OC(F)(F)C(F)F)c2)c2ccc(C(=O)NC3(C)CCS(=O)(=O)CC3)cc21)C(C)(C)O (single isomer, unassigned) [Example 77a, 3-(3-hydroxy-3-methylbutan-2-yl)-N-(4-methyl-1,1-dioxidotetrahydro-2H-thiopyran-4-yl)-2-oxo-1-(3-(1,1,2,2-tetrafluoroethoxy)phenyl)-2,3-dihydro-1H-benzo[d]imidazole-5-carboxamide] | 5.6 nM
CC(n1c(=O)n(-c2cccc(OC(F)(F)C(F)F)c2)c2ccc(C(=O)NC3(C)CCS(=O)(=O)CC3)cc21)C(C)(C)O (single isomer, unassigned) [Example 77b, 3-(3-hydroxy-3-methylbutan-2-yl)-N-(4-methyl-1,1-dioxidotetrahydro-2H-thiopyran-4-yl)-2-oxo-1-(3-(1,1,2,2-tetrafluoroethoxy)phenyl)-2,3-dihydro-1H-benzo[d]imidazole-5-carboxamide] | 9.8 nM
